{"source": "patent US9732091B2", "about": "“Tryptophanol-derived oxazoloisoindolinones: small-molecule P53 activators” (UNIVERSIDADE DO PORTO, priority 2013, dated 2017)", "key": {"HCT116 p53^−/− tumors": {"test_system": "HCT116 p53^−/− tumors", "assay": "xenograft mouse model, HCT116 p53^−/− tumors", "format": "in vivo, BALB/c mice", "details": "four intraperitoneal injections of 50 mg/kg, preliminary", "experimental": "FIG. 10 illustrates the antitumor activity of SLMP53-1 in vivo. BALB/c mice, 4-6 weeks old, were implanted subcutaneous xenografts using 1.5×10^6 HCT116 p53^+/+ or HCT116 p53^−/− cells. The treatment was initiated when palpable tumors were established (14 days after the cells were injected), and consisted in 4 intraperitoneal injections (2× per week) of vehicle (control) or 50 mg/kg of SLMP53-1. Xenografts were measured during 24 days. Relative tumor volumes were plotted for control and treated groups by dividing the average tumor volume for each data point by average starting tumor volume.\nCurrently, the toxicity and antitumor activity of SLMP53-1 are under study in vivo using xenograft mouse models. […] Because p53-null tumors were not suppressed, it was confirmed that SLMP53-1 inhibited the tumor growth in a wt p53-dependent manner."}, "HCT116 p53^+/+ cells": {"test_system": "HCT116 p53^+/+ cells", "assay": "cell cycle analysis by flow cytometry (propidium iodide), HCT116 p53^+/+", "format": "cell-based, human", "details": "double GI50, 24 hours", "experimental": "FIG. 3 illustrates the effect of SLMP53-1 on cell cycle progression of HCT116 p53^+/+ cells. Cell cycle phases were analyzed by flow cytometry using propidium iodide and quantified using ModFit LT software (Verity Software House Inc., Topsham, USA). Effect of compounds (double GI50) was analyzed after 24 hours treatment. Histograms represent one of two independent experiments; quantification of cell cycle phases represents the mean±S.E.M. of two independent experiments."}, "HCT116 p53^−/−": {"test_system": "HCT116 p53^−/−", "assay": "Western blot of p53-target proteins, PARP cleavage, HCT116 p53^−/−", "format": "cell-based, human", "details": "15.5 μM", "experimental": "FIG. 2 illustrates that SLMP53-1 increases the levels of proteins encoded by p53 target genes (MDM2, p21, PUMA and BAX), and leads to PARP cleavage in colon carcinoma cells with wt p53 (HCT116 p53^+/+), but not in colon carcinoma cells without wt p53 (HCT116 p53^−/−). Western blot analysis was performed for human colon carcinoma cells after 16 (B, D, E) and 24 (A, C, F) hours treatment with 15.5 μM of SLMP53-1, 135 nM doxorubicin (DOXO; positive control) or DMSO only. The protein expression levels were evaluated by quantification of Western Blot band intensity (with Bio-Profile Bio-1D++ software) using GAPDH as loading control."}}, "data": [{"molecule": "C[C@]12OC[C@H](Cc3c[nH]c4ccccc34)N1C(=O)c1ccccc12", "note": "[SLMP53-1]", "values": [{"measurement": "tumor growth", "setting": "HCT116 p53^−/− tumors", "result": "without apparent effects"}, {"measurement": "cell cycle progression", "setting": "HCT116 p53^+/+ cells", "result": "G0/G1-phase cell arrest"}, {"measurement": "PARP cleavage", "setting": "HCT116 p53^−/−", "result": "did not induce PARP cleavage"}, {"measurement": "expression levels of MDM2, p21, PUMA and Bax", "setting": "HCT116 p53^−/−", "result": "did not interfere"}]}]}
